Reference: ChEMBL document CHEMBL1275506, “Expanded-spectrum beta-lactamase PER-1 in an environmental Aeromonas media isolate from Switzerland” (2008)
Values after ≈ are worked out from the molar mass of the structure shown.

Experiments:
Type in all cases: functional
Escherichia coli [1] = assay: Antibacterial activity against Escherichia coli J53 harboring plasmid pAM carrying beta-lactamase PER-1 by Etest
Aeromonas sp. [2] = assay: Antibacterial activity against Aeromonas sp. isolate A72 by Etest
Escherichia coli [3] = assay: Antibacterial activity against Escherichia coli J53 by Etest
Escherichia coli [4] = assay: Antibacterial activity against Escherichia coli J53 harboring plasmid pAM carrying beta-lactamase PER-1 by Etest in presence of clavulanic acid
Escherichia coli [5] = assay: Antibacterial activity against Escherichia coli J53 by Etest in presence of clavulanic acid
Aeromonas sp. [6] = assay: Antibacterial activity against Aeromonas sp. isolate A72 by Etest in presence of clavulanic acid

| Structure (SMILES) | MIC (Escherichia coli [1]) [µg/mL] | MIC (Aeromonas sp. [2]) [µg/mL] | MIC (Escherichia coli [3]) [µg/mL] | MIC (Escherichia coli [4]) [µg/mL] | MIC (Escherichia coli [5]) [µg/mL] | MIC (Aeromonas sp. [6]) [µg/mL] |
| --- | --- | --- | --- | --- | --- | --- |
| CC(=O)OCC1=C(C(=O)O)N2C(=O)[C@@H](NC(=O)Cc3cccs3)[C@H]2SC1 [CEPHALOTHIN] | > 64 | > 64 | 8 (≈ 20.2 µM) |  |  |  |
| CC1(C)S[C@@H]2[C@H](NC(=O)[C@H](N)c3ccc(O)cc3)C(=O)N2[C@H]1C(=O)O [AMOXICILLIN] | > 256 | > 256 | 4 (≈ 10.9 µM) | 4 | 4 | 8 |
| CO/N=C(\C(=O)N[C@@H]1C(=O)N2C(C(=O)[O-])=C(C[N+]3(C)CCCC3)CS[C@H]12)c1csc(N)n1 [CEFEPIME] | 8 (≈ 16.6 µM) | 4 (≈ 8.32 µM) |  |  |  |  |
| CO[C@@]1(NC(=O)Cc2cccs2)C(=O)N2C(C(=O)O)=C(COC(N)=O)CS[C@@H]21 [CEFOXITIN] | 2 (≈ 4.68 µM) | 2 (≈ 4.68 µM) | 2 (≈ 4.68 µM) |  |  |  |
| CO/N=C(\C(=O)N[C@@H]1C(=O)N2C(C(=O)O)=C(COC(C)=O)CS[C@H]12)c1csc(N)n1 [CEFOTAXIME] | > 32 | > 32 | 0.06 (≈ 0.132 µM) |  |  |  |
| CC1(C)S[C@@H]2[C@H](NC(=O)[C@H](C(=O)O)c3ccsc3)C(=O)N2[C@H]1C(=O)O [TICARCILLIN] | > 256 | > 256 | 4 (≈ 10.4 µM) | 8 | 4 | 128 |
| C[C@@H](O)[C@H]1C(=O)N2C(C(=O)O)=C(SCCNC=N)C[C@H]12 [IMIPENEM ANHYDROUS] | 0.25 (≈ 0.835 µM) | 0.25 (≈ 0.835 µM) |  |  |  |  |
| CC(C)(O/N=C(\C(=O)N[C@@H]1C(=O)N2C(C(=O)[O-])=C(C[n+]3ccccc3)CS[C@H]12)c1csc(N)n1)C(=O)O [CEFTAZIDIME] | > 256 | > 256 | 0.06 (≈ 0.11 µM) |  |  |  |
